Source: patent publication US9822107B2, “Thiazole-substituted aminoheteroaryls as spleen tyrosine kinase inhibitors” (MERCK SHARP & DOHME CORP., priority 2013, dated 2017)

biological target: T1, recombinant human GST-SYK (Homo sapiens, UniProt P43405); test: Homogeneous Time-Resolved Fluorescence (HTRF) assay for the recombinant human Syk enzyme; assay type: biochemical; settings: recombinant human GST-SYK 5 pM, ATP 25 μM, read-out: rhSYK Activity (IC50)
T1 construct: purchased Carna Biosciences 08-176
Method: Homogeneous Time-Resolved Fluorescence (HTRF) Assay for the Recombinant Human Syk Enzyme
A recombinant GST-hSYK fusion protein was used to measure potency of compounds to inhibit human Syk activity. […] Final volume of the reaction was 10 μL. Phosphorylation of the peptide was allowed to proceed for 45′ at room temperature. To quench the reaction and detect the phosphorylated product, 2 nM of a Europium-anti-phosphotyrosine antibody (Perkin Elmer #AD0161) and 70 nM SA-APC (Perkin-Elmer #CR130-100) were added together in 15 mM Tris pH 7.5, 40 mM EDTA, 0.01% tween 20. Final volume of the quenching solution was 10 μL.
The resulting HTRF signal was measured after 30 minutes on an EnVision (Perkin-Elmer) reader using a time-resolved fluorescence protocol.

| SMILES | IC50 [nM] |
| --- | --- |
| CC(O)(c1ncc(-c2cc(Nc3nccc(C(F)(F)F)n3)cc3[nH]ccc23)s1)[C@H]1CC[C@H](C(=O)O)CC1 (single isomer, unassigned) [Example 1.1, (trans)-4-((R or 5)-1-hydroxy-1-(5-(6-((4-(trifluoromethyl)pyrimidin-2-yl)amino)-1H-indol-4-yl)thiazol-2-yl)ethyl)cyclohexanecarboxylic acid] | 0.5 |
| CC1(C)C[C@@](O)(c2ncc(-c3cc(Nc4nccc(C(F)(F)F)n4)cc4[nH]ccc34)s2)CC[C@@H]1C(=O)O (single isomer, unassigned) [Example 1.3, (1S,4R or 1R,4S)-4-hydroxy-2,2-dimethyl-4-[5-(6-{[4-(trifluoromethyl)pyrimidin-2-yl]amino}-1H-indol-4-yl)-1,3-thiazol-2-yl]cyclohexane-carboxylic acid] | 0.06 |
| Cn1ccc2c(-c3cnc([C@@]4(O)CC[C@H](C(=O)O)C(C)(C)C4)s3)cc(Nc3nccc(C(F)(F)F)n3)cc21 (single isomer, unassigned) [Example 1.4, (1S,4R or 1R,4S)-4-hydroxy-2,2-dimethyl-4-[5-(1-methyl-6-{[4-(trifluoromethyl)pyrimidin-2-yl]amino}-1H-indol-4-yl)-1,3-thiazol-2-yl]cyclohexane-carboxylic acid] | 0.477 |
| CC1(C)C[C@@](O)(c2ncc(-c3ccnc4cc(Nc5nccc(C(F)(F)F)n5)ccc34)s2)CC[C@@H]1C(=O)O (single isomer, unassigned) [Example 1.5, (1S,4R or 1R,4S)-4-hydroxy-2,2-dimethyl-4-(5-(7-((4-(trifluoromethyl)pyrimidin-2-yl)amino)quinolin-4-yl)thiazol-2-yl)cyclohexanecarboxylic acid] | 63.2 |
| CC(O)(c1ncc(-c2ccnc3cc(Nc4nccc(C(F)(F)F)n4)ccc23)s1)[C@H]1CC[C@H](C(=O)O)CC1 (single isomer, unassigned) [Example 1.6] | 61.6 |
| CC1(C)C[C@@](O)(c2ncc(-c3c[nH]c4cc(Nc5nccc(C(F)(F)F)n5)ccc34)s2)CC[C@@H]1C(=O)O (single isomer, unassigned) [Example 1.7, (1S,4R or 1R,4S)-4-hydroxy-2,2-dimethyl-4-(5-(6-((4-(trifluoromethyl)pyrimidin-2-yl)amino)-1H-indol-3-yl)thiazol-2-yl)cyclohexanecarboxylic acid] | 49 |
| CC(O)(c1ncc(-c2c[nH]c3cc(Nc4nccc(C(F)(F)F)n4)ccc23)s1)[C@H]1CC[C@H](C(=O)O)CC1 (single isomer, unassigned) [Example 1.9, (trans)-4-((R or S)-1-hydroxy-1-(5-(6-((4-(trifluoromethyl)pyrimidin-2-yl)amino)-1H-indol-3-yl)thiazol-2-yl)ethyl) cyclohexanecarboxylic acid] | 39.9 |
| CC1(C)C[C@@](O)(c2ncc(-c3cc(Nc4nccc(C(F)(F)F)n4)cc4cn[nH]c34)s2)CC[C@@H]1C(=O)O (single isomer, unassigned) [Example 2.8] | 0.552 |
| CC1(C)C[C@@H](C(C)(O)c2ncc(-c3cc(Nc4nccc(C(F)(F)F)n4)cc4cn[nH]c34)s2)CC[C@@H]1C(=O)O (single isomer, unassigned) [Example 2.9, (trans)-4-((R or S)-1-hydroxy-1-[5-(5-{[4-(trifluoromethyl)pyrimidin-2-yl]amino}-1H-indazol-7-yl)-1,3-thiazol-2-yl]ethyl}-2,2-dimethylcyclohexanecarboxylic acid] | 0.866 |
| CC(O)(c1ncc(-c2cc(Nc3nccc(C(F)(F)F)n3)cc3cn[nH]c23)s1)[C@H]1CC[C@H](C(=O)O)CC1 (single isomer, unassigned) [Example 2.10, (trans)-4-((R or S)-1-hydroxy-1-[5-(5-{[4-(trifluoromethyl)pyrimidin-2-yl]amino}-1H-indazol-7-yl)-1,3-thiazol-2-yl]ethyl}cyclohexanecarboxylic acid] | 0.114 |
| C[C@](O)(c1ncc(-c2cc(Nc3nccc(C(F)(F)F)n3)cc3[nH]ncc23)s1)C1CCC(C(=O)O)CC1 (single isomer, unassigned) [Example 2.11, (trans)-4-((R or S)-(1-hydroxy-1-(5-(6-((4-(trifluoromethyl)pyrimidin-2-yl)amino)-1H-indazol-4-yl)thiazol-2-yl)ethyl)cyclohexanecarboxylic acid] | 0.5 |
| CC(O)(c1ncc(-c2cc(Nc3nccc(C(F)(F)F)n3)cc3[nH]cnc23)s1)[C@H]1CC[C@H](C(=O)O)CC1 (single isomer, unassigned) [Example 2.12, (trans)-4-((R or S)-1-hydroxy-1-(5-(6-((4-(trifluoromethyl)pyrimidin-2-yl)amino)-1H-benzo[d]imidazol-4-yl)thiazol-2-yl)ethyl)cyclohexanecarboxylic acid] | 0.5 |
| OC1(c2ncc(-c3cc(Nc4nccc(C(F)(F)F)n4)cc4[nH]ccc34)s2)CCC1 [Example 1.2, 1-[5-(6-{[4-(trifluoromethyl)pyrimidin-2-yl]amino}-1H-indol-4-yl)-1,3-thiazol-2-yl]cyclobutanol] | 10.4 |
| O=C(O)[C@H]1CC[C@](O)(c2ncc(-c3c[nH]c4ccc(Nc5nccc(C(F)(F)F)n5)cc34)s2)CC1 [Example 1.8] | 0.5 |
| O=C(O)[C@H]1CC[C@](O)(c2ncc(-c3n[nH]c4ccc(Nc5nccc(C(F)(F)F)n5)cc34)s2)CC1 [Example 1.11] | 0.5 |
| O=C(O)[C@H]1CC[C@](O)(c2ncc(-c3c[nH]c4ccc(Nc5nccc(C(F)F)n5)cc34)s2)CC1 [Example 1.12, cis 4-(5-(5-((4-(difluoromethyl)pyrimidin-2-yl)amino)-1H-indol-3-yl)thiazol-2-yl)-4-hydroxy-cyclohexanecarboxylic acid] | 0.5 |
| CC1(C)Oc2c(cc(Nc3nccc(-c4c[nH]nn4)n3)cc2-c2cnc([C@]3(O)CC[C@@H](C(=O)O)CC3)s2)NC1=O [Example 2.1, (cis)-4-(5-(6-((4-(1H-1,2,3-Triazol-4-yl)pyrimidin-2-yl)amino)-2,2-dimethyl-3-oxo-3,4-dihydro-2H-benzo[b][1,4]oxazin-8-yl)thiazol-2-yl)-4-hydroxycyclohexanecarboxylic acid] | 0.3 |
| CC1(C)Oc2c(cc(Nc3nccc(C(F)(F)F)n3)cc2-c2cnc(C3(O)CCC3)s2)NC1=O [Example 2.2, 8-[2-(1-hydroxycyclobutyl)-1,3-thiazol-5-yl]-2,2-dimethyl-6-{[4-(trifluoromethyl)pyrimidin-2-yl]amino}-2H-1,4-benzoxazin-3(4H)-one] | 13.2 |
| O=c1[nH]c2cc(Nc3nccc(C(F)(F)F)n3)cc(-c3cnc(C4(O)CCC4)s3)c2[nH]1 [Example 2.4, 4-[2-(1-hydroxycyclobutyl)-1,3-thiazol-5-yl]-6-{[4-(trifluoromethyl)pyrimidin-2-yl]amino}-1,3-dihydro-2H-benzimidazol-2-one] | 10.1 |
| CC1(C)Oc2c(cc(Nc3nccc(C(F)(F)F)n3)cc2-c2cnc(C(C)(O)C(F)(F)F)s2)NC1=O (stereo not shown) [Example 2.5, 2,2-dimethyl-8-[2-(2,2,2-trifluoro-1-hydroxy-1-methylethyl)-1,3-thiazol-5-yl]-6-{[4-(trifluoromethyl)pyrimidin-2-yl]amino}-2H-1,4-benzoxazin-3(4H)-one] | 35.8 |
| CCOC(=O)[C@H]1CC[C@](O)(c2ncc(-c3cc(Nc4nccc(OC(C)C)n4)cc4c3OC(C)(C)C(=O)N4)s2)CC1 [Example 2.6, ethyl cis-4-[5-(2,2-dimethyl-6-{[4-(1-methylethoxy)pyrimidin-2-yl]amino}-3-oxo-3,4-dihydro-2H-1,4-benzoxazin-8-yl)-1,3-thiazol-2-yl]-4-hydroxy-cyclohexanecarboxylate] | 7.1 |
| CC(C)Oc1ccnc(Nc2cc3c(c(-c4cnc([C@]5(O)CC[C@@H](C(=O)O)CC5)s4)c2)OC(C)(C)C(=O)N3)n1 [Example 2.7, cis-4-[5-(2,2-dimethyl-6-{[4-(1-methylethoxy)pyrimidin-2-yl]amino}-3-oxo-3,4-dihydro-2H-1,4-benzoxazin-8-yl)-1,3-thiazol-2-yl]-4-hydroxy-cyclohexanecarboxylic acid] | 0.366 |

system: PGD2; test: not given; settings: dosed intranasally, phase I/II study, allergic rhinitis; cited from earlier work

| SMILES | clinical safety | decrease in PGD2 |
| --- | --- | --- |
| Oc1cccc(Nc2ncc(F)c(Nc3cccc(O)c3)n2)c1 [Example R112] | safe across a range of indicators | statistically significant decrease |

system: not given; test: not given; settings: phase II clinical trial, allergic rhinitis; cited from earlier work

| SMILES | efficacy versus placebo |
| --- | --- |
| Oc1cccc(Nc2ncc(F)c(Nc3cccc(O)c3)n2)c1 [Example R112] | lack of efficacy versus placebo |
